Patent US11136349
Read-outs that look alike come from different tables or passages of the source.

Conditions: other bond

CC(C)CC1CCC(=O)N[C@@H](Cc2ccccc2)C(=O)N[C@@H](CC(C)C)C(=O)N[C@@H](C)C(=O)N[C@@H](Cc2ccccc2)C(=O)N1C (stereo partly drawn) [cyclo-[(Me)Aba(4-iBu)-Phe-Leu-Ala-Phe]]
ring closure, conversion (from acryloyl-Phe-Leu-Ala-Phe-MeLeu-OH, 17-membered ring, Ir[dF(CF3)ppy]2(dtbbpy)PF6/K2HPO4/blue LED, DMF, 5.0 mM): 77%

CC(C)C[C@@H]1NC(=O)[C@H](Cc2ccccc2)NC(=O)C(c2ccccc2)CCNC(=O)[C@H](Cc2ccccc2)NC(=O)[C@H](C)NC1=O (stereo partly drawn) [cyclo-[Aba(2-Ph)-Phe-Le-Ala-Phe]]
ring closure, conversion (from α-phenylacryloyl-Phe-Leu-Ala-Phe-Gly-OH, 17-membered ring, Ir[dF(CF3)ppy]2(dtbbpy)PF6/K2HPO4/blue LED, DMF, 2.5 mM): 95%

CC(C)C[C@@H]1NC(=O)[C@H](Cc2ccc(OC(C)(C)C)cc2)NC(=O)[C@H](C(C)C)NC(=O)[C@H]([C@@H](C)OC(C)(C)C)NC(=O)[C@H](C)NC(=O)[C@@H]2CCCN2C(=O)[C@H](CC(C)C)NC(=O)[C@H](Cc2ccccc2)NC(=O)[C@H](C)NC(=O)CCCNC1=O [cyclo-[Aba-Ala-Phe-Leu-Pro-Ala-Thr(tBu)-Val-Tyr(tBu)-Leu]]
ring closure, conversion (from acryloyl-Ala-Phe-Leu-Pro-Ala-Thr(tBu)-Val-Tyr(tBu)-Leu-Gly-OH, 32-membered ring, Ir[dF(CF3)ppy]2(dtbbpy)PF6/K2HPO4/blue LED, DMF, 2.5 mM): 64%

CC(C)[C@@H]1NC(=O)[C@H](Cc2ccc(OC(C)(C)C)cc2)NC(=O)[C@H](C)N(C)C(=O)[C@H](Cc2ccccc2)NC(=O)CCCNC1=O [cyclo-[Aba-Phe-(Me)Ala-Tyr(tBu)-Val]]
ring closure, conversion (from acryloyl-Phe-MeAla-Tyr(tBu)-Val-Gly-OH, 17-membered ring, Ir[dF(CF3)ppy]2(dtbbpy)PF6/K2HPO4/blue LED, DMF, 5.0 mM): 66%

CC(C)C[C@@H]1NC(=O)[C@H](CCC(=O)NC(c2ccccc2)(c2ccccc2)c2ccccc2)NC(=O)[C@H](Cc2ccccc2)NC(=O)CCCNC(=O)[C@H](CCCCNC(=O)OC(C)(C)C)NC1=O [cyclo-[Aba-Phe-Gln(Trt)-Leu-Lys(Boc)]]
ring closure, conversion (from acryloyl-Phe-Gln(Trt)-Leu-Lys(Boc)-Gly-OH, 17-membered ring, Ir[dF(CF3)ppy]2(dtbbpy)PF6/K2HPO4/blue LED, DMF, 2.5 mM): 94%

CC(C)C[C@@H]1NC(=O)[C@H](Cc2ccccc2)NC(=O)CCCNC(=O)[C@H](Cc2ccc(Br)cc2)NC(=O)[C@H](C)NC1=O [cyclo-[Aba-Phe-Leu-Ai-Phe(4-Br)]]
ring closure, conversion (from acryloyl-Phe-Leu-Ala-Phe(4-Br)-Gly-OH, 17-membered ring, Ir[dF(CF3)ppy]2(dtbbpy)PF6/K2HPO4/TRIP-SH/blue LED, DMF, 2.5 mM): 48%

CC(C)C[C@@H]1NC(=O)[C@H](Cc2ccccc2)NC(=O)CCCNC(=O)[C@H](Cc2cn(C(c3ccccc3)(c3ccccc3)c3ccccc3)cn2)NC(=O)[C@H](C)NC1=O [cyclo-[Aba-Phe-Leu-Ala-His(Trt)]]
ring closure, conversion (from acryloyl-Phe-Leu-Ala-His(Trt)-Gly-OH, 17-membered ring, Ir[dF(CF3)ppy]2(dtbbpy)PF6/K2HPO4/blue LED, DMF, 1.0 mM): 65%

CC(C)C[C@@H]1NC(=O)[C@H](CCC(=O)OC(C)(C)C)NC(=O)[C@@H]2CCCN2C(=O)[C@H](C)NC(=O)[C@H](Cc2ccccc2)NC(=O)CCCNC(=O)[C@H](C)NC(=O)[C@H](Cc2ccccc2)NC1=O [cyclo-[Aba-Phe-Leu-Ala-Phe]]
ring closure, conversion (from acryloyl-Phe-Ala-Pro-Glu(OtBu)-Leu-Phe-Ala-Gly-OH, 26-membered ring, Ir[dF(CF3)ppy]2(dtbbpy)PF6/K2HPO4/blue LED, DMF, 5.0 mM): 61%

CC(C)C[C@@H]1NC(=O)[C@H](Cc2ccccc2)NC(=O)CCCNC(=O)[C@H](Cc2ccccc2)NC(=O)[C@H](C)NC1=O [cyclo-[Aba-Phe-Leu-Ala-Phe]]
ring closure, conversion (from acryloyl-Phe-Leu-Ala-Phe-Gly-OH, 17-membered ring, Ir[dF(CF3)ppy]2(dtbbpy)PF6/K2HPO4/blue LED, DMF, 2.5 mM): 93%

CSCC[C@@H]1NC(=O)[C@H](Cc2ccccc2)NC(=O)CCCNC(=O)[C@H](CCC(=O)OC(C)(C)C)NC(=O)[C@H](CC(C)C)NC1=O [cyclo-[Aba-Phe-Met-Leu-Glu(OtBu)]]
ring closure, conversion (from acryloyl-Phe-Met-Leu-Glu(tBu)-Gly-OH, 17-membered ring, Ir[dF(CF3)ppy]2(dtbbpy)PF6/K2HPO4/TRIP-SH/blue LED, DMF, 2.5 mM): 40%

C#CC[C@@H]1NC(=O)[C@H](Cc2ccccc2)NC(=O)CCCNC(=O)[C@H](CCCCNC(=O)OC(C)(C)C)NC(=O)[C@H](C)NC1=O [cyclo-[Aba-Phe-Pra-Ala-Lys(Boc)]]
ring closure, conversion (from acryloyl-Phe-Pra-Ala-Lys(Boc)-Gly-OH, 17-membered ring, Ir[dF(CF3)ppy]2(dtbbpy)PF6/K2HPO4/blue LED, DMF, 5.0 mM): 82%

CC(C)[C@@H]1NC(=O)CCCNC(=O)[C@H](Cc2cn(C(=O)OC(C)(C)C)c3ccccc23)NC(=O)[C@H](Cc2ccccc2)NC(=O)[C@H]([C@@H](C)OC(C)(C)C)NC1=O [cyclo-[Aba-Val-Thr(tBu)-Phe-Trp(Boc)]
ring closure, conversion (from acryloyl-Val-Thr(tBu)-Phe-Trp(Boc)-Gly-OH, 17-membered ring, Ir[dF(CF3)ppy]2(dtbbpy)PF6/K2HPO4/blue LED, DMF, 2.5 mM): 56%

C[C@@H]1NC(=O)CCCNC(=O)[C@H](Cc2ccc(OC(C)(C)C)cc2)NC1=O [cyclo-[Aha-Ala-Tyr(tBu)]]
ring closure, conversion (from acryloyl-Ala-Tyr(tBu)-Gly-OH, 11-membered ring, Ir[dF(CF3)ppy]2(dtbbpy)PF6/K2HPO4/TRIP-SH/blue LED, DMF, 1.0 mM): 24%

C[C@@H]1NC(=O)[C@H](CCCNC(=NC(=O)OC(C)(C)C)NC(=O)OC(C)(C)C)NC(=O)[C@H](Cc2ccccc2)NC(=O)CCCNC(=O)[C@H](COC(C)(C)C)NC1=O [cyclo-[Aha-Phe-Arg(Bo)2-Ser(tBu)-Ala]]
ring closure, conversion (from acryloyl-Phe-Arg(Boc)2-Ala-Ser(tBu)-Gly-OH, 17-membered ring, Ir[dF(CF3)ppy]2(dtbbpy)PF6/K2HPO4/TRIP-SH/blue LED, DMF, 2.5 mM): 59%

CC(C)C[C@@H]1NC(=O)[C@H](Cc2ccccc2)NC(=O)CCC(CCC(=O)O)NC(=O)[C@H](Cc2ccccc2)NC(=O)[C@H](C)NC1=O (stereo partly drawn) [cyclo-[Ahda-Phe-Leu-Ala-Phe]]
ring closure, conversion (from acryloyl-Phe-Leu-Ala-Phe-Glu-OH, 17-membered ring, Ir[dF(CF3)ppy]2(dtbbpy)PF6/K2HPO4/blue LED, DMF, 2.5 mM): 38%

CC(C)C[C@@H]1NC(=O)[C@H](Cc2ccccc2)NC(=O)CCC2(CC2)NC(=O)[C@H](Cc2ccccc2)NC(=O)[C@H](C)NC1=O [cyclo[(3-Ac)pa-Phe-Leu-Ala-Phe]]
ring closure, conversion (from acryloyl-Phe-Leu-Ala-Phe-Acc-OH, 17-membered ring, Ir[dF(CF3)ppy]2(dtbbpy)PF6/K2HPO4/blue LED, DMSO, 2.5 mM): 48%

CC(C)C[C@@H]1NC(=O)[C@H](Cc2ccccc2)NC(=O)CCC2(CCCC2)NC(=O)[C@H](Cc2ccccc2)NC(=O)[C@H](C)NC1=O [cyclo[(3-Aep)pa-Phe-[Leu-Aa-Phe]]
ring closure, conversion (from acryloyl-Phe-Leu-Ala-Phe-Aepe-OH, 17-membered ring, Ir[dF(CF3)ppy]2(dtbbpy)PF6/K2HPO4/blue LED, DMSO, 2.5 mM): 49%

cyclo-[Aba-Ala-Leu-Pbe-Lys(Boc)-Pro-Ala-Phe-Ala-Leu-Pro-Glu(OBu)-Leu-Phe-VaI]
ring closure, conversion (47-membered ring, Ir[dF(CF3)ppy]2(dtbbpy)PF6/K2HPO4/blue LED, DMF, 0.25 mM): 60%
